From article PMC7459591 (Marine Drugs, 2020)

What was measured:
[1] = tested on: human Kv1.4 channel; type: cell-based
[2] = tested on: human Kv1.5 channel; type: cell-based

CSCC[C@H](NC(=O)[C@@H]1CCCN1C(=O)CNC(=O)[C@H](CO)NC(=O)[C@@H](NC(=O)[C@H](C)N)[C@@H](C)O)C(=O)NCC(=O)N[C@@H](Cc1c[nH]c2ccccc12)C(=O)N[C@@H](CC(C)C)C(=O)N1CCC[C@H]1C(=O)N[C@H](C(=O)N[C@@H](Cc1ccccc1)C(=O)N[C@@H](Cc1ccc(O)cc1)C(=O)N[C@@H](CCCNC(=N)N)C(=O)N[C@@H](Cc1ccccc1)C(N)=O)C(C)C [CNF-Sr3, Conorfamide-Sr3] was tested, and the “Decrease of current, Kv1.4” value [1] was “less than 5%” and the “Decrease of current, Kv1.5” value [2] was “less than 5%”.
